Several values for one entry are separate records, joined by “and”; a condition that tells them apart may be missing. Equal entries are not always repeated.
What was measured:
[1] = molecular target: T1, AAA3 Walker A-mutant His-dynein 1 (K2601A) (Homo sapiens, UniProt Q14204, K2601A); test: ATPase activity of AAA3 Walker A-mutant (K2601A) His-dynein 1; type: biochemical; conditions: for IC50: 2% DMSO, read-out: IC50, inhibition of the basal ATPase activity of the AAA3 Walker A-mutant His-dynein 1
T1 construct: (wild-type, K1912A, K2601A, AA 1320–4646, uniprot: Q14204); made in house; host or cells: Sf9 insect cells (baculovirus)
Description: (§1) ATPase assays using recombinant Dynein 1 (wild-type and mutants) were performed in a buffer containing 25 mM PIPES pH7.0, 30 mM KCl, 1 mM EGTA, 5 mM MgCl2, 0.01% triton X-100, 1 mM DTT, and 20–30 µM taxol (if microtubules were present). For typical conditions, enzyme was incubated with varying concentrations of inhibitor in buffer containing 2% DMSO for 10 min in a volume of 10 μL. When microtubules were present, they were polymerized by stepwise addition of taxol and high concentrations of DMSO (30% final during polymerization reactions), and re-suspended following centrifugation in ATPase buffer to a concentration up to threefold above the final concentration used in the reaction (bovine brain tubulin, no fluoresecent label). For microtubule-stimulated reactions in dose-response format, reactions were assembled by 1:1:1 mixture of 3x enzyme stock, 3x compound stock (in buffer with 6% DMSO), and 3x microtubule stock to each well. For microtubule-stimulated ATPase assays at tubulin concentrations > 2.5 µM, enzyme stock was supplemented with compound stock in pure DMSO (resulting in an intermediate DMSO concentration of 6%), and then the microtubule stock was added. Final enzyme concentrations were 30–100 nM for GFP-dynein 1, wild-type 6x-His-dynein 1, and K2601A 6x-His-dynein 1 and up to 500 nM for K1912A 6x-His-dynein 1. The final DMSO concentration was 2% in all ATPase assays performed.
Assembled reaction mixtures (including enzyme, compound, and microtubules, if present) were incubated for 10 min before addition of ATP. Each ATPase reaction was initiated by addition of 2 μL of a 6x ATP stock containing trace γ-^32P ATP (3 µCi/mmol, 3 µCi/mL, Perkin Elmer) and allowed to proceed for a time predetermined to lie within the linear range of the assay (20–30 min). For typical conditions, ATP was used at a final concentration of 1 mM. Reactions were quenched by the addition of 12 µL 100 mM EDTA, and 2 μL of each quenched reaction was spotted onto PEI-cellulose TLC plates (Millipore). Plates were developed in a glass chamber with a freshly prepared solution of 150 mM formic acid and 150 mM LiCl, dried, exposed to a storage phosphor tray (GE Healthsciences), and scanned on a Typhoon imaging system (GE Healthsciences). The fraction of γ-phosphate hydrolyzed in each condition was quantified using FIJI.
Curve fitting: Where dose-response experiments are fit and IC50values given, these are obtained as follows: Individual experiments are treated as separate. The data are fit to a sigmoidal dose-response curve of the form (Y=Bottom + (Top-Bottom)/(1 + 10^((LogIC50-X)*HillSlope)). All variables were allowed to float freely with the exception of the variable denoted ‘bottom’, which was constrained to be >0. The separate IC50 values obtained from fits to each individual experiment's dataset were averaged together and presented as a mean with range (Figure 3G and H) or standard deviation (Figures 3I, 5D, 6E and K).

His-dynein 1 = molecular target: T2, His-dynein 1 (Homo sapiens, UniProt Q14204); test: Basal ATPase activity of His-dynein 1 (wild-type); type: biochemical; conditions: 40 µM compound, 1 mM MgATP, 2% DMSO; control 0.66 ± 0.1 s^−1
T2 construct: (wild-type, K1912A, K2601A, AA 1320–4646, uniprot: Q14204); made in house; host or cells: Sf9 insect cells (baculovirus)
Description: as §1, with “Final enzyme concentrations were 30–100 nM for GFP-dynein 1, wild-type 6x-His-dynein 1, and K2601A 6x-His-dynein 1 and up to 500 nM for K1912A 6x-His-dynein 1. The final DMSO concentration was 2% in all ATPase assays performed.” left out
Assembled reaction mixtures (including enzyme, compound, and microtubules, if present) were incubated for 10 min before addition of ATP. […] The fraction of γ-phosphate hydrolyzed in each condition was quantified using FIJI.

T1 sequence (Q14204 1320-4646 K2601A): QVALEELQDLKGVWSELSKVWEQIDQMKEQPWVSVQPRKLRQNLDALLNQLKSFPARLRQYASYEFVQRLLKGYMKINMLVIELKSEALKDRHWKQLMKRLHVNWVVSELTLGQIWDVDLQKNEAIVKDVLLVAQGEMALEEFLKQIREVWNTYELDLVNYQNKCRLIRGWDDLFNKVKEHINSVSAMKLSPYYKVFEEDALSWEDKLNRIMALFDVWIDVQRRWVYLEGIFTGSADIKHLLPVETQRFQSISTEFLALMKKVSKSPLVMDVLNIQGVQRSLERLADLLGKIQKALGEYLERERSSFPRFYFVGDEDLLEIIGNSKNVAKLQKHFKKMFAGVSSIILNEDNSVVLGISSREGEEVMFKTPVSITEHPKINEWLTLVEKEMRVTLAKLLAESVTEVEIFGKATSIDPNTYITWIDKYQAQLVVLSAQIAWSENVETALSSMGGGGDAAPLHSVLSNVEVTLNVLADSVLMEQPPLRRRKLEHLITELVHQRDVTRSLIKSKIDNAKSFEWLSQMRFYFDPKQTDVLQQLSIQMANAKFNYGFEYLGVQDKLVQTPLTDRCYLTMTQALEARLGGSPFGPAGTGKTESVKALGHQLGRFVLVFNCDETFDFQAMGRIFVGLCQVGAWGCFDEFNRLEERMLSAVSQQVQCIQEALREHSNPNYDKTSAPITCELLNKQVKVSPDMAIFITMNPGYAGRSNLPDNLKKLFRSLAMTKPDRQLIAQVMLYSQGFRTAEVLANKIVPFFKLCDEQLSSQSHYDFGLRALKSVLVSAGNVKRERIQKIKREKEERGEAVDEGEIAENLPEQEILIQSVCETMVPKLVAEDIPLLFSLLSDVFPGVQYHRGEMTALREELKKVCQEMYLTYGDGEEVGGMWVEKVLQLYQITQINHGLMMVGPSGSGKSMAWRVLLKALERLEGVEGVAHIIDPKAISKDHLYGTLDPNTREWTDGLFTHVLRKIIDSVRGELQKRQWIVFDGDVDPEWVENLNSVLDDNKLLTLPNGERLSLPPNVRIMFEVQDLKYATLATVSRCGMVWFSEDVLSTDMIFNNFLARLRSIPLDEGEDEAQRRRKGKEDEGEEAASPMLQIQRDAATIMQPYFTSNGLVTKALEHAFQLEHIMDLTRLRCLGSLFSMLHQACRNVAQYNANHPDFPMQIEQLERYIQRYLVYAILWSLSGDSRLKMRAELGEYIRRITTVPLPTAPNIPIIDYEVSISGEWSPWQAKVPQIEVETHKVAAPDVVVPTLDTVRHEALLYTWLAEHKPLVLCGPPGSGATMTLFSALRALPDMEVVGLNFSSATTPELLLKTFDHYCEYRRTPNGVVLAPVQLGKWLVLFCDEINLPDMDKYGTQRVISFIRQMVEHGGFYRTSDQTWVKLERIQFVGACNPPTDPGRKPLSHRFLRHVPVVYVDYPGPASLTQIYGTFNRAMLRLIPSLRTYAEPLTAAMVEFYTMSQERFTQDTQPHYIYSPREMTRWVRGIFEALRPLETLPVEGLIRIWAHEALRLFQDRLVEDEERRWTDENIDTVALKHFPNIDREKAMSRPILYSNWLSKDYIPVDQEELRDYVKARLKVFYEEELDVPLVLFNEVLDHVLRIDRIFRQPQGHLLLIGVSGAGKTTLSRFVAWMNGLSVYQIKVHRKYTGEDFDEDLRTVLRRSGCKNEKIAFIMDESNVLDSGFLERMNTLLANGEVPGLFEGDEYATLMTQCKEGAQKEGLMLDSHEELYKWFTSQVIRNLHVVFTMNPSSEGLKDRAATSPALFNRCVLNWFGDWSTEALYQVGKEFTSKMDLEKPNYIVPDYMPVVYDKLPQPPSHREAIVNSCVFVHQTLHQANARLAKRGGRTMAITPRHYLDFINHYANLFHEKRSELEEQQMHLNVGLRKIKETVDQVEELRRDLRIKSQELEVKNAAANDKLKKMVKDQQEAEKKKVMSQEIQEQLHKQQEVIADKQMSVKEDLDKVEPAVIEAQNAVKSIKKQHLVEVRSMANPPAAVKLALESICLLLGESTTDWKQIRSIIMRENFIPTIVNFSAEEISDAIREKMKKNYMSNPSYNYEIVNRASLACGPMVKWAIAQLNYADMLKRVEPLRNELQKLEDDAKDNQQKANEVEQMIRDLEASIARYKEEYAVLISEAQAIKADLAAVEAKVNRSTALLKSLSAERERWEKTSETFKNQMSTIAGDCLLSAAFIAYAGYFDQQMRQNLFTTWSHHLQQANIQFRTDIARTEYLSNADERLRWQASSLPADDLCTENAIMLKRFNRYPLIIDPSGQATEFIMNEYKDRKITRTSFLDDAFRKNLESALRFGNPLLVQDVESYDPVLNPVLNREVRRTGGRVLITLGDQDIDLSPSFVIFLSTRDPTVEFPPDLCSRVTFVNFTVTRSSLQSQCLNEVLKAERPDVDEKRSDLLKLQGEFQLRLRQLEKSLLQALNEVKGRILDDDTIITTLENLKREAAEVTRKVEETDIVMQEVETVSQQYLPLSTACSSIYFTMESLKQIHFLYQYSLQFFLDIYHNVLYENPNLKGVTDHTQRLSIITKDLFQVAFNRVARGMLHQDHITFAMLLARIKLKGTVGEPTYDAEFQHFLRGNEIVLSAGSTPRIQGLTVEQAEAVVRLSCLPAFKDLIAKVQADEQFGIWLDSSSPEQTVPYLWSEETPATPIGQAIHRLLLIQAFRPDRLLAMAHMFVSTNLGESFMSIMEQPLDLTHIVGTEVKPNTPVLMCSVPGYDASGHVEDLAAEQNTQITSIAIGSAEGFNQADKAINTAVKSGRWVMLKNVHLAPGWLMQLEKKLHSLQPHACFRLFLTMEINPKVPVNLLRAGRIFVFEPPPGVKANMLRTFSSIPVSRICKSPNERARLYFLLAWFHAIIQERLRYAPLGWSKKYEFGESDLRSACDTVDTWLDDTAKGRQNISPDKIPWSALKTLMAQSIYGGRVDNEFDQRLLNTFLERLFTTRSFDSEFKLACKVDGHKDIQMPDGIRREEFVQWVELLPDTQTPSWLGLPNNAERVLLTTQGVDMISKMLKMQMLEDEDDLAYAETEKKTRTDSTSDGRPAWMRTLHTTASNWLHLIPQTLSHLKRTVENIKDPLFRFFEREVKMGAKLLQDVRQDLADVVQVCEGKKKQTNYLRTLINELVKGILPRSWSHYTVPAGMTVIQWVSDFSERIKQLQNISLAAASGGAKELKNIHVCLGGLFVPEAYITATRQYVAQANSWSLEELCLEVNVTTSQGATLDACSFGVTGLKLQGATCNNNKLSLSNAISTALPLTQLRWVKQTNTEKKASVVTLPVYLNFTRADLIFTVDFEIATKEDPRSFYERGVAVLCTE
T2 sequence (Q14204 1320-4646): as the sequence (Q14204 1320-4646 K2601A) above, with A1282K counted along it

SMILES | IC50 ([1]; 1 mM MgATP) | inhibition at 40 µM (His-dynein 1) | Reduction of AAA3 mutant dynein's ATPase activity across the range of microtubule concentrations tested ([1]; 30 µM compound, 1 mM MgATP) | inhibition at 30 µM ([1]; 30 µM compound, no microtubules, read-out: Inhibition of basal activity of the AAA3 mutant) | Residual ATPase activity of AAA3 mutant at the highest concentrations tested ([1]; basal activity, dose-response)
N#C/C(C(=O)c1ccc(Cl)cc1Cl)=C1\NC(=O)c2ccc(Cl)cc2N1 [ciliobrevin D, reference compound] | 38.4 µM and 38 µM | ~70% |  |  | 
N#Cc1c(C2(c3ccc(Cl)cc3)CC2)nn2c1[nH]c(=O)c1cc(I)ccc12 [Compound 8, 2-[1-(4-chlorophenyl)cyclopropyl]-7-iodo-5-oxo-4H-pyrazolo[1,5-a]quinazoline-3-carbonitrile] | 5.5 ± 1.6 µM | ~30% | 70–80% | ~70% | ~ 0.2 s^−1
